In ChEMBL document CHEMBL4507292 (2021):

What was measured:
[1] = target: Tyrosine-protein kinase Tec (Homo sapiens) (UniProt P42680); conditions: Compound concentration 1000.0 nM
[2] = target: Mitogen-activated protein kinase kinase kinase 6 (Homo sapiens) (UniProt O95382); conditions: Compound concentration 1000.0 nM
[3] = target: ALK tyrosine kinase receptor (Homo sapiens) (UniProt Q9UM73); conditions: Compound concentration 1000.0 nM
[4] = target: Alpha-1B adrenergic receptor (Homo sapiens, UniProt P35368); experiment: GPCRScan assay: inhibition of Alpha1B; design: radioligand conc. used [nm] 0.3 – 1.0, parental cells stable HEK
[5] = target: Mitogen-activated protein kinase kinase kinase kinase 3 (Homo sapiens) (UniProt Q8IVH8); conditions: Compound concentration 1000.0 nM
[6] = target: RAF proto-oncogene serine/threonine-protein kinase (Homo sapiens) (UniProt P04049); conditions: Compound concentration 1000.0 nM
[7] = target: Cyclin-dependent kinase 19 (Homo sapiens) (UniProt Q9BWU1); conditions: Compound concentration 1000.0 nM
[8] = target: Cyclin-dependent kinase 5 (Homo sapiens) (UniProt Q00535); conditions: Compound concentration 1000.0 nM
[9] = tested on: ALK tyrosine kinase receptor (Homo sapiens), Q9UM73 [C1156Y]; conditions: Compound concentration 1000.0 nM
[10] = target: TGF-beta receptor type-1 (Homo sapiens) (UniProt P36897); conditions: Compound concentration 1000.0 nM
[11] = target: Cyclin-dependent kinase 2 (Homo sapiens) (UniProt P24941); conditions: Compound concentration 1000.0 nM
[12] = target: Death-associated protein kinase 1 (Homo sapiens) (UniProt P53355); conditions: Compound concentration 1000.0 nM
[13] = target: Misshapen-like kinase 1 (Homo sapiens) (UniProt Q8N4C8); conditions: Compound concentration 1000.0 nM
[14] = target: Platelet-derived growth factor receptor beta (Homo sapiens) (UniProt P09619); conditions: Compound concentration 1000.0 nM
[15] = target: Serine/threonine-protein kinase MRCK beta (Homo sapiens) (UniProt Q9Y5S2); conditions: Compound concentration 1000.0 nM
[16] = target: Mitogen-activated protein kinase 6 (Homo sapiens) (UniProt Q16659); conditions: Compound concentration 1000.0 nM
[17] = target: Serine/threonine-protein kinase Nek6 (Homo sapiens) (UniProt Q9HC98); conditions: Compound concentration 1000.0 nM
[18] = target: Delta-type opioid receptor (Homo sapiens) (UniProt P41143); conditions: Compound concentration 10.0 uM
[19] = target: Casein kinase I isoform gamma-1 (Homo sapiens) (UniProt Q9HCP0); conditions: Compound concentration 1000.0 nM
[20] = target: Receptor tyrosine-protein kinase erbB-3 (Homo sapiens) (UniProt P21860); conditions: Compound concentration 1000.0 nM
[21] = target: Serine/threonine-protein kinase D2 (Homo sapiens) (UniProt Q9BZL6); conditions: Compound concentration 1000.0 nM
[22] = target: Phosphatidylinositol 4-phosphate 5-kinase type-1 alpha (Homo sapiens) (UniProt Q99755); conditions: Compound concentration 1000.0 nM
[23] = target: T1, Muscarinic acetylcholine receptor M5 (Homo sapiens) (UniProt P08912); conditions: Compound concentration 10.0 uM
T1 sequence (whole entry): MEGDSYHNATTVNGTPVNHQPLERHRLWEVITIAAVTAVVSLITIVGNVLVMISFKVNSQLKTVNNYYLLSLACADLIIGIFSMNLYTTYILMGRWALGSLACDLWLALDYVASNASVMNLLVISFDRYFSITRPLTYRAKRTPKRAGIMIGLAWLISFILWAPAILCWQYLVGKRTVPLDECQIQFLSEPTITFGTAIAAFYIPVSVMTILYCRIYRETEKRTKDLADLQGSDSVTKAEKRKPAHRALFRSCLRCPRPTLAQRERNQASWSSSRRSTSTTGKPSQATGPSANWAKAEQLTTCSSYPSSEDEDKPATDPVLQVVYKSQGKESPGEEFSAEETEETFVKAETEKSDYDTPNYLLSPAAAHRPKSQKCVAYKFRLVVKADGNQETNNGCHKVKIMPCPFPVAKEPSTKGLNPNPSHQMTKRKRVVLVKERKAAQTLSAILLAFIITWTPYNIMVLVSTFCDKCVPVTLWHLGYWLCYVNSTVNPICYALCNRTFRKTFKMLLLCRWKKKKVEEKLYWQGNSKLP

[24] = target: Cyclin-dependent kinase 11B (Homo sapiens) (UniProt P21127); conditions: Compound concentration 1000.0 nM
[25] = target: Serine/threonine-protein kinase SIK2 (Homo sapiens) (UniProt Q9H0K1); conditions: Compound concentration 1000.0 nM
[26] = target: Serine/threonine-protein kinase ULK2 (Homo sapiens) (UniProt Q8IYT8); conditions: Compound concentration 1000.0 nM
[27] = target: Dual specificity mitogen-activated protein kinase kinase 6 (Homo sapiens) (UniProt P52564); conditions: Compound concentration 1000.0 nM
[28] = tested on: Hepatocyte growth factor receptor (Homo sapiens), P08581 [M1250T]; conditions: Compound concentration 1000.0 nM
[29] = target: Myosin light chain kinase, smooth muscle (Homo sapiens) (UniProt Q15746); conditions: Compound concentration 1000.0 nM
[30] = target: STE20/SPS1-related proline-alanine-rich protein kinase (Homo sapiens) (UniProt Q9UEW8); conditions: Compound concentration 1000.0 nM
[31] = target: Calcium/calmodulin-dependent protein kinase type II subunit delta (Homo sapiens) (UniProt Q13557); conditions: Compound concentration 1000.0 nM
[32] = target: Ephrin type-B receptor 3 (Homo sapiens) (UniProt P54753); conditions: Compound concentration 1000.0 nM
[33] = target: Protein-tyrosine kinase 2-beta (Homo sapiens) (UniProt Q14289); conditions: Compound concentration 1000.0 nM
[34] = target: Serine/threonine-protein kinase B-raf (Homo sapiens) (UniProt P15056); conditions: Compound concentration 1000.0 nM
[35] = target: Serine/threonine-protein kinase ULK1 (Homo sapiens) (UniProt O75385); conditions: Compound concentration 1000.0 nM
[36] = target: Serine/threonine-protein kinase tousled-like 2 (Homo sapiens) (UniProt Q86UE8); conditions: Compound concentration 1000.0 nM
[37] = target: Rhodopsin kinase GRK1 (Homo sapiens) (UniProt Q15835); conditions: Compound concentration 1000.0 nM
[38] = target: Alpha-2B adrenergic receptor (Homo sapiens, UniProt P18089); experiment: GPCRScan assay: inhibition of Alpha2B; design: radioligand conc. used [nm] 1.5 – 2.0, parental cells HEKT
[39] = target: Activin receptor type-2A (Homo sapiens) (UniProt P27037); conditions: Compound concentration 1000.0 nM

Sequence of Serine/threonine-protein kinase Nek6 (Homo sapiens) (Q9HC98 whole entry): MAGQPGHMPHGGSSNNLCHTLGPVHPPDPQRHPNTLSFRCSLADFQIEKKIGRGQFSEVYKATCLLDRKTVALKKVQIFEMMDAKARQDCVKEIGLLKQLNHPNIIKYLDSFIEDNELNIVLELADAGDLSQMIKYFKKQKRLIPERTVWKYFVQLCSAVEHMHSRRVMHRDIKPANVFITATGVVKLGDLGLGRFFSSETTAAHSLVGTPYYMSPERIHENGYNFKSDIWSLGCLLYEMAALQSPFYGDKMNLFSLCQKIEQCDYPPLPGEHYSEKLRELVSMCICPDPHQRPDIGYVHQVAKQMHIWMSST
Sequence of Mitogen-activated protein kinase kinase kinase 6 (Homo sapiens) (O95382 whole entry): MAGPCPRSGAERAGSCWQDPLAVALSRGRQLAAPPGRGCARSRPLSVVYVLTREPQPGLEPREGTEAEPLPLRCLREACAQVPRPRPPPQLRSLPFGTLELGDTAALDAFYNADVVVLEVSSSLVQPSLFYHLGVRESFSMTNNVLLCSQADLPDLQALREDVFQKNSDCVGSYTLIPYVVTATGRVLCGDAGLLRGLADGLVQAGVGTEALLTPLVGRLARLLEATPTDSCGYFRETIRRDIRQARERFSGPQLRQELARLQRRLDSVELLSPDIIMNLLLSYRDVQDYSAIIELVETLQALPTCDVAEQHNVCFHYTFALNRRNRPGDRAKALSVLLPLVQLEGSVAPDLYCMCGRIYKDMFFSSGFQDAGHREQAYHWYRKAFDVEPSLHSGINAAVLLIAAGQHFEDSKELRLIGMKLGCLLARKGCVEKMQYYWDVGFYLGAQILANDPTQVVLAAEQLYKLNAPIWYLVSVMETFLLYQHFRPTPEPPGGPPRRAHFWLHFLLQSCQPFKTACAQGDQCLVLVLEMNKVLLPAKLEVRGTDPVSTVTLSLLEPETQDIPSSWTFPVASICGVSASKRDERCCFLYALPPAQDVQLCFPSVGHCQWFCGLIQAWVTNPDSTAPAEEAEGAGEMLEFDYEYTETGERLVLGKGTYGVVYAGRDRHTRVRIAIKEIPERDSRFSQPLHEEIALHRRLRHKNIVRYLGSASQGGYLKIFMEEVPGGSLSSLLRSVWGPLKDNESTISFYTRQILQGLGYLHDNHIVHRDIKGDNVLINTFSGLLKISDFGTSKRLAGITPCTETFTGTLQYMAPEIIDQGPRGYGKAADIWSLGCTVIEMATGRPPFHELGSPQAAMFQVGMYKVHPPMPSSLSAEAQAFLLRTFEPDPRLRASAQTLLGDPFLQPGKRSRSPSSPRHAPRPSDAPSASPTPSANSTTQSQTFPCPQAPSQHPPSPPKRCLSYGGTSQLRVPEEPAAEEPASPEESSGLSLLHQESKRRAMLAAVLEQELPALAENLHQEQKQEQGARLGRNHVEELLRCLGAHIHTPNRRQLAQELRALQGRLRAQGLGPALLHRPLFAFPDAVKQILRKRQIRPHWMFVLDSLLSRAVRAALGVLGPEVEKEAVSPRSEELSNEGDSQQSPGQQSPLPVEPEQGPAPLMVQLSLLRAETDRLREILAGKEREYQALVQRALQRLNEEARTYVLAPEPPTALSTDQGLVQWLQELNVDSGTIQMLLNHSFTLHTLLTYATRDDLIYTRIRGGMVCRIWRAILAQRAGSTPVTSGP
Sequence of Dual specificity mitogen-activated protein kinase kinase 6 (Homo sapiens) (P52564 whole entry): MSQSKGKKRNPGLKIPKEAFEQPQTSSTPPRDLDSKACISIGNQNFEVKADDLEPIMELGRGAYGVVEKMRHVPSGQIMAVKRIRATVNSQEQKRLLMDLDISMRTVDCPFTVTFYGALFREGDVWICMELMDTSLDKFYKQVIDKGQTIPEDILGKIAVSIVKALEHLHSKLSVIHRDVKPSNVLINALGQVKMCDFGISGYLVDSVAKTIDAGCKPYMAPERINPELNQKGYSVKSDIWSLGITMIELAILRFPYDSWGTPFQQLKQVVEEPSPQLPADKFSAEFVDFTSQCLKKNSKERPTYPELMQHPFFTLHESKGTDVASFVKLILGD
Sequence of Cyclin-dependent kinase 5 (Homo sapiens) (Q00535 whole entry, looked up): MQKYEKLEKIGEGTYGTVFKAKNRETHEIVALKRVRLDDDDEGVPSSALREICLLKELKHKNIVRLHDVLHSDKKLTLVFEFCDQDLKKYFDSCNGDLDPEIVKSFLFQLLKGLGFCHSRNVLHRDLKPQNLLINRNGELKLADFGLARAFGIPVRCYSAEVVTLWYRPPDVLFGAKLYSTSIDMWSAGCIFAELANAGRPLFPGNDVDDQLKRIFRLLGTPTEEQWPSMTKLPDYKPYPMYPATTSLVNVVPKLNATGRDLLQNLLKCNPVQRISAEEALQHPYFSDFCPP
Sequence of ALK tyrosine kinase receptor (Homo sapiens) (Q9UM73 19-1620 limits assumed): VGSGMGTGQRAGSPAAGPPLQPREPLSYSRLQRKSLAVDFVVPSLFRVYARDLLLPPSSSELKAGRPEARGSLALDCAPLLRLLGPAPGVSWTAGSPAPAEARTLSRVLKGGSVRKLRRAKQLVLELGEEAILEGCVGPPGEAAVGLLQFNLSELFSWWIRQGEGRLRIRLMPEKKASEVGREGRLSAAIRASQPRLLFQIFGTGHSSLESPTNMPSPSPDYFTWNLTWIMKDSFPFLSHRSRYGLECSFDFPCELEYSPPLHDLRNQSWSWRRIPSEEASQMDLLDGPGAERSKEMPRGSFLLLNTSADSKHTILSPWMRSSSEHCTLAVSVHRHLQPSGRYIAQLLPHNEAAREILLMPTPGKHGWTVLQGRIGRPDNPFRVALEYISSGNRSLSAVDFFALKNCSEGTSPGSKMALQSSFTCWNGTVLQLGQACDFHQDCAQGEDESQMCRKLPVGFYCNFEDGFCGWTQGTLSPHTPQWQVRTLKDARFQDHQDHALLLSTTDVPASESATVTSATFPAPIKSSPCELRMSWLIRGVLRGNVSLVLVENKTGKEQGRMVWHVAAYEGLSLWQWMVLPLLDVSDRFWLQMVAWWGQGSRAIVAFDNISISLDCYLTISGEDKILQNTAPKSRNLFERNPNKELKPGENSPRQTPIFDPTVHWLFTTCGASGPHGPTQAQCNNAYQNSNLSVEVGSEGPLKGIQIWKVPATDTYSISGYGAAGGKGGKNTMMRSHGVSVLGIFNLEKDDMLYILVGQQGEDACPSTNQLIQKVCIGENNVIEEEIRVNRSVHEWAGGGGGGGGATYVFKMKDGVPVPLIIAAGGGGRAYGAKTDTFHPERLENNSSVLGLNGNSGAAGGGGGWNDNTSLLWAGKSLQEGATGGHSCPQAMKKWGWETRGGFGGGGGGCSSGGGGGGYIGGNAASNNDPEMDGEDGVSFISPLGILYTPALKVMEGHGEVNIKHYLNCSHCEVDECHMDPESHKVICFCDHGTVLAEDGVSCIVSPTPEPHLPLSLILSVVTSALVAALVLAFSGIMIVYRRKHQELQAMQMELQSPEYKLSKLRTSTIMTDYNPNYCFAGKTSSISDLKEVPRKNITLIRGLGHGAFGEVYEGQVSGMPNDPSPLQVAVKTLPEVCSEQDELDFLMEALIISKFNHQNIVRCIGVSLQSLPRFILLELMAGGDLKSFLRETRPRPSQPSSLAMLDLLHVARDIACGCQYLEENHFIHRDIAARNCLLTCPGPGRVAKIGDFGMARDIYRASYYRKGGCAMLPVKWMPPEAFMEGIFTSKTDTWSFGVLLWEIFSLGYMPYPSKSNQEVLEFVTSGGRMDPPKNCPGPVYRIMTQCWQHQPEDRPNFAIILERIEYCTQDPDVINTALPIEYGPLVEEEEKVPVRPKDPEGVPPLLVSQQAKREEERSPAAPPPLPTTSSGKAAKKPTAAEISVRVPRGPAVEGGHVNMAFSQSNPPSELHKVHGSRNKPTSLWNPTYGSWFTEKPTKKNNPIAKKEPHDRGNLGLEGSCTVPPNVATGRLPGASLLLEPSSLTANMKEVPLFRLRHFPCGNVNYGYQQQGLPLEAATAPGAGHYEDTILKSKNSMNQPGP
Sequence of Serine/threonine-protein kinase ULK2 (Homo sapiens) (Q8IYT8 whole entry): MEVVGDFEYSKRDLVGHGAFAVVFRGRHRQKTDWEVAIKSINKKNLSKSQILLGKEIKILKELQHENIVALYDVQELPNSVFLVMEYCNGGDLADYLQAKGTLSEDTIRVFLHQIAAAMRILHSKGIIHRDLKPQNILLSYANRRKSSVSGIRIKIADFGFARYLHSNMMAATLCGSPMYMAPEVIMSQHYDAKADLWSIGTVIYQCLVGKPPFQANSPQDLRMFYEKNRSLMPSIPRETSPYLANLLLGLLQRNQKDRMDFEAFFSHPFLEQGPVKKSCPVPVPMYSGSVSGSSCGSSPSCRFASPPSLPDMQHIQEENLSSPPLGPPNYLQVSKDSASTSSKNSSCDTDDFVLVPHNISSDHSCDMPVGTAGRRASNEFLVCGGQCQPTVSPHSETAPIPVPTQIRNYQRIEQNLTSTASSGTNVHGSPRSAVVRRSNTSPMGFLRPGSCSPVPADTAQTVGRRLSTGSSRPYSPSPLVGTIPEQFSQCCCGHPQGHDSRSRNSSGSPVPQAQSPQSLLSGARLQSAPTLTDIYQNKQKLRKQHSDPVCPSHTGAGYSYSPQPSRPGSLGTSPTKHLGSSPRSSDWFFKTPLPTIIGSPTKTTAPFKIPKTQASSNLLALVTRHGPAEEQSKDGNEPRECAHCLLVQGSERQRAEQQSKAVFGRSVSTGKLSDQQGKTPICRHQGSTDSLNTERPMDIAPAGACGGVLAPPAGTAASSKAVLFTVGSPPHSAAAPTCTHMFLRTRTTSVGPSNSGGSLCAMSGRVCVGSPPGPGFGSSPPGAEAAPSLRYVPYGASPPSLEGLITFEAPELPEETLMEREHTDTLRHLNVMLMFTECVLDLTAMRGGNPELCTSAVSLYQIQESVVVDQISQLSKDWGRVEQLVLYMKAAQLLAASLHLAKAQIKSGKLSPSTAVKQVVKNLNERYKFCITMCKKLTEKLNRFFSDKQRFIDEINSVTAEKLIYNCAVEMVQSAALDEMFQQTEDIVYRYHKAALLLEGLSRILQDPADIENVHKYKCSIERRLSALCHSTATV

| Structure (SMILES) | residual activity [1] | residual activity [2] | residual activity [3] | Ki [4] | residual activity [5] | residual activity [6] | residual activity [7] | residual activity [8] | residual activity [9] | residual activity [10] | residual activity [11] | residual activity [12] | residual activity [13] | residual activity [14] | residual activity [15] | residual activity [16] | residual activity [17] | inhibition [18] | residual activity [19] | residual activity [20] | further results |
| --- | --- | --- | --- | --- | --- | --- | --- | --- | --- | --- | --- | --- | --- | --- | --- | --- | --- | --- | --- | --- | --- |
| Cc1c(C(=O)O)cc(-c2ccc(C3CCNCC3)cc2)c2ccc(-c3ccc(C(F)(F)F)cc3)cc12 [PPTN-NC] | 100% | 100% | 100% | 3600 nM | 100% | 80% | 100% | 100% | 100% | 89% | 100% | 100% | 100% | 100% | 100% | 100% | 100% | 32% | 100% | 86% | residual activity [21]: 100%; residual activity [22]: 70%; inhibition [23]: 10.1%; residual activity [24]: 100%; residual activity [25]: 100%; residual activity [26]: 100%; residual activity [27]: 100%; residual activity [28]: 97%; residual activity [29]: 82%; residual activity [30]: 100%; residual activity [31]: 100%; residual activity [32]: 100%; residual activity [33]: 100%; residual activity [34]: 100%; residual activity [35]: 100%; residual activity [36]: 100%; residual activity [37]: 100%; Ki [38]: 1840 nM; residual activity [39]: 87% |
| O=C(O)c1cc(-c2ccc(C3CCNCC3)cc2)c2ccc(-c3ccc(C(F)(F)F)cc3)cc2c1 [PPTN] | 100% | 100% | 100% | 3230 nM | 100% | 70% | 97% | 100% | 100% | 81% | 100% | 100% | 98% | 100% | 100% | 100% | 100% | 36.4% | 100% | 85% | residual activity [21]: 100%; residual activity [22]: 78%; inhibition [23]: 10.1%; residual activity [24]: 100%; residual activity [25]: 100%; residual activity [26]: 100%; residual activity [27]: 100%; residual activity [28]: 86%; residual activity [29]: 85%; residual activity [30]: 100%; residual activity [31]: 100%; residual activity [32]: 100%; residual activity [33]: 100%; residual activity [34]: 100%; residual activity [35]: 100%; residual activity [36]: 100%; residual activity [37]: 100%; Ki [38]: 2560 nM; residual activity [39]: 100% |
